Results on 1 compound are retold here after patent publication US9468654B1, “Drug delivery compositions and methods” (WILKES UNIVERSITY, priority 2014, dated 2016).

The format of the series is physicochemical. From the text: Referring to FIGS. 1A and B, differential scanning calorimetry thermographs compare the melting of (1A) lysine and (1B) a lysine-based drug delivery composition, according to this example. […] These observations, further confirmed with Raman spectroscopy and x-ray powder diffraction, are consistent with the nanosizing effect on melting point and thermal stability of crystals due to the increased surface to volume ratio.

Structures are written as SMILES.

With `NCCCC[C@H](N)C(=O)O` [lysine], the “onset decomposition temperature (thermal stability)” value is “about 257 °C”.
